Results on 9 compounds are retold here after patent US8765941B2 (Kino Pharma, Inc., priority 2008, dated 2014).

Data set [1] concerns intracellular HCV protein (NS3-NS4-NS5A-NS5B). Briefly: HCV viral protein expression assay using LuHCV cells (luciferase activity). The following applies: Hepatitis C virus, 48 h, read-out: luc activity (% control).
Experimental: As an HCV viral protein expression assay, screening was performed for compounds having anti-HCV activity using human hepatocytes with which the replication and expression of the intracellular HCV protein (NS3-NS4-NS5A-NS5B) can be evaluated through determination of luciferase activity (hereinafter, referred to as LuHCV).
LuHCV cells were plated onto 96-well plates at 5×10^3 cells/50 μL/well and then incubated overnight. Test compounds were each dissolved in dimethyl sulfoxide (DMSO) and dilution series were prepared using DMSO, if necessary. On the next day of plating of LuHCV cells, a medium containing a test compound with a concentration twice the final test concentration was added at 50 μL/well. Cells were gently cultured under culture conditions of 48 hours, 37° C., and 5% CO2 (the final concentrations of the test compounds: 0, 10, and 20 μM). At this time, analysis was made using 3 test wells for each test compound and for each concentration.
Culture medium was removed after 48 hours. Glo lysis buffer (100 μL) (Promega) was added to each well and then cells were disrupted, so that a cell extract was obtained. With the use of 50 μL of the thus obtained cell extract, 50 μL of a Bright-Glo™ Luciferase Assay System (Promega) reagent was added. Luciferase activity in the extract was determined by measuring luminescence intensity for one second using a measuring device ARVO (PerkinElmer Co., Ltd.).
Based on the thus obtained numerical values of luminescence intensity, an average value for each test compound at each concentration was calculated. The luminescence intensity percentage for each test compound was calculated based on a luminescence intensity for DMSO (used as a control for test substances) as 100%.
Culture medium was removed after 48 hours. Glo Lysis buffer (100 μL) (Promega) was added to each well and then cells were disrupted, so that a cell extract was obtained. With the use of 50 μL of the thus obtained cell extract, 50 μL of a Bright-Glo™ Luciferase Assay System (Promega) reagent was added. Luciferase activity in the extract was determined by measuring luminescence intensity for one second using a measuring device ARVO (PerkinElmer Co., Ltd.).
Based on the thus obtained numerical values of luminescence intensity, an average value for each test compound at each concentration was calculated. The luminescence intensity percentage for each test compound was calculated based on a luminescence intensity of DMSO (used as a control for test substances) as 100%.
Data set [2] has as its system LuHCV cells. Briefly: Evaluation of cell growth suppression using LuHCV cells (percentage of viable cells, reagent SF). The following applies: 48 hours, DMSO = 100%. The format is cell-based, human. As for the experimental part:
At this time, as a background absorbance, measurement was also performed for wells containing test compounds (or DMSO used as a control), but containing no cells. Each of the thus obtained background numerical values was deducted from the absorbance of a cell-containing well (measured for the same compound at the same concentration). The resulting value was designated as actual measurement of number of viable cells containing no background. […] With an average value measured for DMSO used as a control test substance designated as 100%, the percentage of the number of viable cells for each test compound was calculated.
At this time, as a background absorbance, measurement was also performed for wells containing test compounds (or containing DMSO used as a control), but containing no cells. Each of the thus obtained background numerical values was deducted from the absorbance of a cell-containing well (measured for the same compound at the same concentration). The resulting value was designated as actual measurement of number of viable cells containing no background. […] By using a value measured upon addition of DMSO used as a control test substance designated as 100%, the percentage of the number of viable cells for each test compound was calculated. Table 1-2 and FIG. 2B show the percentage of the number of viable cells (cell viability (% control)) for each test compound at each concentration.

On to `Cc1ccc(C(=O)NC(=S)Nc2cc(C(F)(F)F)ccc2N2CCCCCCC2)cn1` [Compound 10, N-(6-methylnicotinoyl)-N′-[2-(azacyclo-octan-1-yl)-5-(trifluoro-methyl)phenyl]thiourea], for which, in data set [1], the activity at 10 µM is 41.2% and the activity at 20 µM turned out to be 26.9%. For the same compound, in data set [2] (10 μM), the “viability (% control)” value stood at 96.19 % control. For the same compound, the “viability (% control)” value in data set [2] (20 μM) is 89.38 % control.

As to `Cc1ccc(C(=O)NC(=S)Nc2cc(C(F)(F)F)ccc2N2CCCCCCC2)cc1` [Compound 11], in data set [1], the activity at 10 µM came to 35.8% and the activity at 20 µM is 29.8%. Also, the “viability (% control)” value in data set [2] (10 μM) came out at 89.95 % control. In addition, the “viability (% control)” value in data set [2] (20 μM) turned out to be 89.20 % control.

Take `COc1ccc(C(=O)NC(=S)Nc2cc(C(F)(F)F)ccc2N2CCCCCCC2)cc1` [Compound 12, N-(4-methoxybenzoyl)-N′-[2-(azacyclooctan-1-yl)-5-(trifluoromethyl)phenyl]thiourea]: in data set [1], the activity at 10 µM stood at 32.8% and the activity at 20 µM was found to be 28.6%. Moreover, in data set [2] (10 μM), the “viability (% control)” value amounted to 94.69 % control. Further, the “viability (% control)” value in data set [2] (20 μM) was 88.78 % control.

As for `O=C(NC(=S)Nc1cc(C(F)(F)F)ccc1N1CCCCCCC1)c1ccc(F)cc1` [Compound 13, N-(4-fluorobenzoyl)-N′-[2-(azacyclooctan-1-yl)-5-(trifluoromethyl)phenyl]thiourea], in data set [1], the activity at 10 µM was 34.1% and the activity at 20 µM turned out to be 28.5%. Also, in data set [2] (10 μM), the “viability (% control)” value is recorded as 101.56 % control. Besides, the “viability (% control)” value in data set [2] (20 μM) came out at 104.05 % control.

With `COc1ccccc1C(=O)NC(=S)Nc1cc(C(F)(F)F)ccc1N1CCCCCCC1` [Compound 15, N-(2-methoxybenzoyl)-N′-[2-(azacyclooctan-1-yl)-5-(trifluoromethyl)phenyl]thiourea], the activity at 10 µM in data set [1] is 45.8%. Also, the activity at 20 µM in data set [1] came out at 37.6%. Also, the “viability (% control)” value is recorded as 107.86 % control in data set [2] (10 μM) and 107.33 % control in data set [2] (20 μM).

As to `O=C(NC(=S)Nc1cc(C(F)(F)F)ccc1F)c1cccnc1` [Compound 16, N-nicotinoyl-N′-[2-fluoro-5-(trifluoro-methyl)phenyl]thiourea], the activity at 10 µM in data set [1] worked out at 58.1%. Besides, the activity at 20 µM in data set [1] stood at 48.9%. For the same compound, the “viability (% control)” value in data set [2] (10 μM) turned out to be 85.21 % control; in data set [2] (20 μM) it was 79.86 % control.

`O=C(NC(=S)Nc1cc(C(F)(F)F)ccc1N1CCCCCCC1)c1ccoc1` [Compound 17]: in data set [1], the activity at 10 µM is 26.1%. Besides, the activity at 20 µM in data set [1] was found to be 17.6%. The “viability (% control)” value in data set [2] (10 μM) was determined as 112.89 % control; in data set [2] (20 μM), 108.81 % control.

`O=C(Nc1cc(C(F)(F)F)ccc1N1CCCCCCCC1)c1ccncc1` [Compound 20, W[2-(azacyclononan-1-yl)-5-(trifluoromethyl)-phenyl]isonicotinamide]: in data set [1], the activity at 10 µM was 48.3%. The activity at 20 µM in data set [1] was 22.7%. The “viability (% control)” value in data set [2] (10 μM) stood at 111.50 % control; in data set [2] (20 μM), 105.35 % control.

As for `O=C(NC(=S)Nc1cc(C(F)(F)F)ccc1N1CCCCCCCC1)c1ccccc1` [Compound 24, 1-benzoyl-3-[2-(azacyclononan-1-yl)-5-(trifluoro-methyl)phenyl]thiourea], in data set [1], the activity at 10 µM came to 56.4% and the activity at 20 µM was found to be 39.4%. In data set [2] (10 μM), the “viability (% control)” value is 108.20 % control. The “viability (% control)” value in data set [2] (20 μM) came out at 110.15 % control.
